According to publication PMC10126419, “pyHeart4Fish: Chamber-specific heart phenotype quantification of zebrafish in high-content screens” (Frontiers in Cell and Developmental Biology, 2023):
“Also recorded” adds a separate entry of the source. Where a name gives a salt, the structure may show the parent alone.

Legend:
[1] = parameters: method as in Prestwick Chemical Library; settings: solvents; library annotation, ref Prestwick Chemical Library; cited from earlier work
zebrafish embryos [2] = test: Manually assessed pericardial edema in treated zebrafish; type: in vivo; settings: 20 µM; for Edema: Mild / Edema: Moderate / Edema: No edema / Edema: Severe: number of fish, Tg(myl7:eGFP); for Pericardial edema severity: myl7:eGFP zebrafish
Description: FIGURE 4 Quantitative data analysis with pyHeart4Fish. […] (A) The left graph presents the detected heart rate derived from the fast fourier transformation (FFT). […] (B) Percentual data on the severity of manually assessed pericardial edema in treated Tg(myl7:eGPF)^twu34/+ zebrafish. (C) The relative contractility derived from percentual size changes of each heart chamber (left graph). Approximate ejection fraction determined by chamber volume changes (right graph). […] The number of fish analyzed is shown in brackets after the treatment condition. Dotted gray lines indicate z-scores of ±1.96 and statistical significance with an alpha error of 5%.

[3] = tested on: Tg(myl7:eGFP)^twu34/+ zebrafish embryos; settings: 20 µM; for Embryos with Mobitz type II atrioventricular block (AVB): Tg(myl7:eGFP)^twu34/+, zebrafish, in vivo, 24 h
Description: Nevertheless, it is advised that arrhythmia types are confirmed manually, as was done in this study.

zebrafish embryos [4] = test: Toxicity score (ToxScore) at increasing compound concentrations; settings: for ToxScore: 80 µM; for Concentration-dependent toxic effects: 5–80 µM
Protocol: (§1) Embryos were dechorionated at 21 hpf using 0.22 mg/ml pronase (Merck Chemicals) for 12 min. Then, embryos were carefully washed three times with egg water and transferred into a 96-deep-well plate. After incubation at 28°C for 3 h, excess water was removed with a glass capillary and exchanged with 100 µL/well of 20 µM compound solution from the Prestwick Chemical Library (Prestwick Chemicals, France) in 0.2% DMSO (v/v) in egg water. […] Subsequently, embryos were exposed to compounds for 24 h at 28°C in the dark to enable testing of light-sensitive compounds. Solutions were removed at 48 hpf before wells containing embryos were washed three times with system water. Then, treated embryos were transferred into 12-well plates containing 1 ml 0.03% tricaine in system water (Sigma-Aldrich, Germany). Testing different concentrations (5–80 µM) of compounds and their respective controls followed the above protocol.
Embryos that were deceased and not intact were assigned a max. ToxScore value of 5.

[5] = tested on: Tg(myl7:eGFP)^twu34/+ zebrafish embryos; test: Chamber-specific quantitative heart phenotyping with pyHeart4Fish; settings: 20 µM; for Effect on heart function / morphology: contractility, conduction, arrhythmia, HS, EF / Effect on heart rate: vs DMSO controls; for Arrhythmia / Conduction defect: number of fish;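 as to all read-outs here: embryos exposed 24 h from 24 hpf in 0.2% DMSO egg water, tricaine-anaesthetised, heartbeat videos imaged at 470 nm and hearts analysed chamber by chamber from pixel-intensity beat curves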
Protocol: as §1
Oriented embryos in 96-well plates were automatically imaged using an [sequence] Imaging Machine ([sequence] Imaging, Germany) widefield microscope. Z-stacks of 10 slices (dZ = 15 µm) were acquired in brightfield (BF) and 470 nm channels with a 4×0.13 numerical aperture objective. The focal plane was detected in the 470 nm channel using a course and secondary fine software autofocus. BF integration time was fixed at 20 ms exposure time and 55% LED intensity. The exposure time for the 470 nm channel was set to 10 ms with a 10% LED intensity. Heartbeat videos of 6 s at 6 frames/second (f/s) were acquired with a time-lapse at a 0 s interval in the focus plane acquired after secondary autofocus using the previously described integration and exposure settings with a 10×0.25 numerical aperture objective.
Hearts are analyzed chamber-specifically via the user-assisted region of interest (ROI) selection. Cardiac morphology parameters (HS and shape) are extracted as the median of the first six images/frames. Raw data of heartbeat curves for the atrium and ventricle are derived from the sum of pixel intensities and normalized chamber areas. Frequencies (in s^-1) of atrium and ventricle contraction are obtained by applying sine-curve fitting or fast Fourier transformation (FFT) using the SciPy modules “optimize.curve_fit” and “fft.rfft/fft.rfftfreq”, respectively ([Virtanen et al., 2020]). Curve fitting is performed with a maximum of 30 iterations while increasing the frequencies of the fitted sine function. The best fit is selected using the correlation coefficient between the raw data and the fitted function implemented in the NumPy package. A fitted sine function and fitting score are also determined for a truncated signal (first quarter), and the best-fitted sine function is kept to account for an unstable heartbeat signal. In the case of FFT, the first harmonic of the FFT signal is used as the frequency of the atrium or ventricle contraction. Analysis with pyHeart4Fish provides heartbeat videos in GIF format, heartbeat curves as PNG/PDF files and a data sheet containing meta information and cardiac parameters.

[6] = tested on: Tg(fli1a:nEGFP)^y7 zebrafish embryos; test: Primary high-content heart rate screen of the Prestwick Chemical Library (HeartBeat software v.2.1); type: in vivo; settings: Tg(fli1a:nEGFP)^y7, zebrafish, in vivo, 24 h, 20 µM
Description: Acquired image series were preprocessed and analyzed using the previously published HeartBeat software v.2.1 and provided scripts ([Gierten et al., 2020]). For increased comparability between experiments, each quantitative HR value (beats per minute) was divided by the mean of the DMSO controls from the respective experiment. This procedure minimizes variation and creates specific fold-change values that are z-score normalized in the next step. A 90% CI was used to reduce the probability of false-negative results. Finally, data from compounds with insufficient N and known aquatic toxicity were removed.
Based on a previously established high-throughput screening pipeline, we performed a high-content drug screen in zebrafish for cardiovascular modulators ([Poureetezadi et al., 2014]; [Gierten et al., 2020]; [Westhoff et al., 2020]). […] About 98% of the library’s compounds are approved by the Food and Drug Administration (FDA), European Medicines Agency (EMA) or other regulatory agencies. The drug library was screened at a concentration of 20 µM for 24 h until 48 hpf using the transgenic zebrafish line Tg(fli1a:nEGFP)^y7. Subsequently, BF images and videos were captured at 2 dpf to assess gross morphology. HR was analyzed with the previously published tool HeartBeat (v.2.1) to identify potential hit compounds. A 90% CI threshold for effect sizes of ±1.64 was used to reduce false-negative results. […] The Open Targets platform and the Mayo Clinic Drugs and Supplements Database were systematically searched for compound names and common synonyms ([Drugs and Supplements, 2022]; [Open Targets, 2022]). The Medical Subject Headings (MeSH) terms “compound name” and “heart rate” were applied to NCBI PubMed literature research before the first five pages of publications sorted by relevance were screened for relevant information. Furthermore, compounds were filtered for unknown targets (n = 3), FDA black box warning (n = 6) and aquatic toxicity (n = 4). […] Therefore, compounds with n < 3 were excluded (n = 7).

zebrafish embryos [7] = test: Manually assessed pericardial edema in treated zebrafish; type: in vivo; settings: 20 µM, fli1a:eGFP zebrafish
zebrafish embryos [8] = test: Gross morphology / development of treated zebrafish 2 dpf (brightfield); type: in vivo; settings: 20 µM, 2 dpf
Protocol: FIGURE 5 Morphology of treated zebrafish 2 dpf. An overview of the gross phenotypes of treated zebrafish 2 days post-fertilization. All compounds were dissolved in DMSO; therefore, DMSO served as the negative control. NaCl served as the salt control. The effects of atorvastatin treatment on zebrafish embryos were previously established; thus, this drug was used as a positive control for cardioactivity. The aquatic toxic compound enilconazole was used as the toxic positive control. […] The black arrow in the image of iopanoic acid-treated zebrafish embryo indicates caudal fin deformity. The scale bar indicates 500 µm in overview brightfield images and 150 µm in fluorescence images. (a) Atrium; (v) ventricle.

[9] = parameters: method as in Prestwick Chemical Library; settings: library annotation, ref Prestwick Chemical Library; cited from earlier work
zebrafish embryos [10] = settings: 71 μM, ref Yang et al., 2014; cited from earlier work

CN(C)CCN(Cc1ccc(Cl)cc1)c1ccccn1 [Chloropyramine HCl, chloropyramine HCl]
Lit. Solubility [1]: DMSO
Edema: Mild (zebrafish embryos [2]): 4
Edema: Moderate (zebrafish embryos [2]): 7
Edema: No edema (zebrafish embryos [2]): 0
Edema: Severe (zebrafish embryos [2]): 0
Embryos with Mobitz type II atrioventricular block (AVB) [3]: 18.2%
ToxScore (zebrafish embryos [4]): 4.8
Effect on heart function / morphology: contractility, conduction, arrhythmia, HS, EF [5]: a slower HR in the ventricle than in the atrium
Effect on heart rate [5]: decreased HR
Arrhythmia [5]: 0
Conduction defect [5]: 2
Z-score Heart rate [6]: -2.971 z-score

CCC(Cc1c(I)cc(I)c(N)c1I)C(=O)O (stereo not shown) [Iopanoic acid]
Pericardial edema severity (zebrafish embryos [2]): mild edema
Edema: Mild (zebrafish embryos [2]): 2
Edema: Moderate (zebrafish embryos [2]): 1
Edema: No edema (zebrafish embryos [2]): 1
Edema: Severe (zebrafish embryos [2]): 0
Pericardial edema severity (zebrafish embryos [7]): moderate edema
ToxScore (zebrafish embryos [4]): 4.4
Gross morphology / developmental and teratogenic effects (zebrafish embryos [8]; listed as IOP): developmental delay; also recorded: caudal fin deformities
Effect on heart function / morphology: contractility, conduction, arrhythmia, HS, EF [5]: Contractility, HS and EF were not affected
Arrhythmia [5]: 0
Conduction defect [5]: 0

COc1ccc(CCN2CCC(Nc3nc4ccccc4n3Cc3ccc(F)cc3)CC2)cc1 [Astemizole]
Lit. Solubility [1]: CH2Cl2, MeOH
Metabolism: tissue [9]: Liver
Z-score Heart rate [6]: -7.189 z-score

CN(C)CCN(Cc1cccs1)c1ccccn1 [Methapyrilene HCl, methapyrilene HCl]
Lit. Solubility [1]: H2O, EtOH, CHCl3
Edema: Mild (zebrafish embryos [2]): 1
Edema: Moderate (zebrafish embryos [2]): 2
Edema: No edema (zebrafish embryos [2]): 1
Edema: Severe (zebrafish embryos [2]): 1
Embryos with Mobitz type II atrioventricular block (AVB) [3]: 50%
Effect on heart rate [5]: decreased HR
Arrhythmia [5]: 2
Conduction defect [5]: 2
Z-score Heart rate [6]: -2.21 z-score

C[C@@H]1C[C@@H]([C@H](O)CC2CC(=O)NC(=O)C2)C(=O)[C@@H](C)C1 [Cycloheximide]
Pericardial edema severity (zebrafish embryos [2]): moderate to severe pericardial edema
Edema: Mild (zebrafish embryos [2]): 0
Edema: Moderate (zebrafish embryos [2]): 3
Edema: No edema (zebrafish embryos [2]): 1
Edema: Severe (zebrafish embryos [2]): 3
Concentration-dependent toxic effects (zebrafish embryos [4]): doses higher than 40 µM induced cardiac arrest and severe pericardial edema
Effect on ventricular volume (zebrafish embryos [10]): decreased ventricular volume
Gross morphology / developmental and teratogenic effects (zebrafish embryos [8]; listed as CHX): bent tails; also recorded: development was delayed
Arrhythmia [5]: 3
Conduction defect [5]: 0

CNCC[C@@H](Oc1cccc2ccccc12)c1cccs1 [(R)-Duloxetine HCl]
Edema: Mild (zebrafish embryos [2]): 1
Edema: Moderate (zebrafish embryos [2]): 3
Edema: No edema (zebrafish embryos [2]): 0
Edema: Severe (zebrafish embryos [2]): 2
Treated embryos with atrial flutter [3]: 33%
Fraction of embryos with atrial flutter ([3]; manual analysis of heartbeat videos): one-third
Concentration-dependent toxic effects (zebrafish embryos [4]; listed as DLX): dose-dependently increased the ToxScore; also recorded: complete lethality at 80 µM
Effect on heart rate [5]: not significantly decreased
Arrhythmia [5]: 0
Conduction defect [5]: 2

Cc1cccc(CN2CCN(C(c3ccccc3)c3ccc(Cl)cc3)CC2)c1.Cl.Cl (stereo not shown) [Meclozine dihydrochloride]
Lit. Solubility [1]: CHCl3, pyridine
Metabolism: tissue [9]: Liver
